inhibition, IC50 and Ki data for three molecules are collected here from publication PMC5789148, “Embelin Restores Carbapenem Efficacy against NDM-1-Positive Pathogens” (Frontiers in Microbiology, 2018).

Common to all, as to format: biochemical
The target in experiment [1] is T1, NDM-1 (New Delhi metallo-β-lactamase-1) (Klebsiella pneumoniae, UniProt C7C422).
T1 construct: gene blaNDM-1
Put plainly: single-concentration ([…]) meropenem hydrolysis screen with purified NDM-1. The note with it: read-out: % inhibition at 20 μM.

Experiment [2] addresses IMP-1 (Serratia marcescens, UniProt P52699). Put plainly: meropenem hydrolysis inhibition assay.
Experiment [3] deals with VIM-1 (Pseudomonas aeruginosa, UniProt A0A0F7KYQ8). Put plainly: meropenem hydrolysis inhibition assay.
For experiment [4], the target named is T1, NDM-1 (New Delhi metallo-β-lactamase-1). The experiment in a line: meropenem hydrolysis inhibition with purified NDM-1, […] nm (IC50 […]).

T1 sequence (C7C422 29-270 limits assumed): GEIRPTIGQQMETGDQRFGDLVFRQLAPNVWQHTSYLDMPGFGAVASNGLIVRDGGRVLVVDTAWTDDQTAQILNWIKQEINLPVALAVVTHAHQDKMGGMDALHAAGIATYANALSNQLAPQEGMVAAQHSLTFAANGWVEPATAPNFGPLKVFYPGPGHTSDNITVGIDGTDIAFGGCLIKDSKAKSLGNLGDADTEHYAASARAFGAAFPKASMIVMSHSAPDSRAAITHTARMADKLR
IMP-1, sequence (P52699 19-246 limits assumed): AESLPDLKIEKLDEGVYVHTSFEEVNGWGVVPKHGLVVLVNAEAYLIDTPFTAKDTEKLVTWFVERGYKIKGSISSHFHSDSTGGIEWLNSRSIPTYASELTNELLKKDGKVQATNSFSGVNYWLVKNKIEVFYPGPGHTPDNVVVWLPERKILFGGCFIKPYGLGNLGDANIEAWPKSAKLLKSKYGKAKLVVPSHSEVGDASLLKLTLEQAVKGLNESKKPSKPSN

Consider `COc1cc(/C=C/C(=O)CC(=O)/C=C/c2ccc(O)c(OC)c2)ccc1O` [curcumine], for which, in experiment [1], the inhibition (commonly how much of the control response was suppressed) at 20 µM is more than 20%.
Consider `CCCCCCCCCCCC1=C(O)C(=O)C=C(O)C1=O` [embelin], for which the results for the IC50 in experiment [2] and in experiment [3] were approximately 100 µM and approximately 200 µM, respectively. The affinity in experiment [4] corresponds to a Ki of 0.19 ± 0.02 µM.
Consider `Oc1ccc(/C=C/c2cc(O)cc(O)c2)cc1` [resveratrol], for which the inhibition at 20 µM in experiment [1] was more than 20%.
